Test results: patent US9440914B2, “Method for treating glioblastomas and other tumors” (THE FEINSTEIN INSTITUTE FOR MEDICAL RESEARCH, priority 2013, dated 2016)

Columns and labels:
microglia = assay: glioblastoma cell-stimulated microglia invasion (transwell); format: cell-based, murine; settings: GL261 in bottom well, microglia in BME, 48 h; read-out: IC50 for inhibition of GL261-stimulated microglia invasion
Description: To measure the invasion of microglia toward glioblastoma cells in vitro, a variant of the glioblastoma cell invasion assay was used. First, 15×10^4 G1261 cells were plated in MSFM medium overnight and subsequently were placed in serum free medium. Subsequently, 5×10^4 microglia cells were embedded in 50 μL, of 10 mg/mL BME with or without 200 nM semapimod, placed in a 8 μm transwell (previously coated with 1 μg/mL fibronectin on the bottom side of the 8 μm filter to maintain adhesion of the cells that invaded through the filter) and allowed to polymerize for 30 min at 37° C. The transwell chambers were then placed above the previously plated GL261. After 48 h of incubation, the chambers were fixed in 3.7% formaldehyde in PBS.
The cells were stained with 0.2% crystal violet in 2% ethanol. The remaining BME was carefully removed and the inserts were allowed to dry. Cells attached to the bottom of the filter were imaged as for the invasion assay and the total number of invaded microglia was determined.
Semapimod inhibits glioblastoma-induced microglia invasion in vitro: Microglia extensively infiltrate glial tumors (5-7). […] This stimulatory effect is abolished by semapimod, with an IC50 of approximately 60 nM.

[1] = system: SK-NEP1 cells with M2 macrophages; assay: invasion assay of SK-NEP1 co-cultured with polarized primary macrophages; format: cell-based, human; settings: co-culture with M2 macrophages, p<0.01
Description: FIG. 7. CNI-1493 inhibits tumor invasion in vitro through in the presence of macrophages. When co-cultured with SK-NEP1, macrophages polarized to express the M2 phenotype induced increased tumor cell invasion. This increase in invasion was reversed when co-cultures were exposed to 200 nM CNI-1493. Error bars represent standard deviation.
In vivo, human ES cells (SK-NEP1) were surgically implanted into the left kidney of athymic mice. Mice were treated for 7 weeks with CNI-1493 or vehicle. Lung parenchyma was assessed for metastases utilizing both H&E and immunohistochemistry for the ES-specific CD99 and endothelial-specific CD31 markers. In vitro, primary macrophages isolated from human blood were polarized to M1 or M2 phenotypes by exposure to GM-CSF or M-CSF and activated with IFN-γ and LPS or IL-4. Cells were co-cultured with polarized macrophages and underwent proliferation and invasion assays in the presence or absence of CNI-1493.

## C/C(=N\NC(=N)N)c1cc(NC(=O)CCCCCCCCC(=O)Nc2cc(/C(C)=N/NC(=N)N)cc(/C(C)=N/NC(=N)N)c2)cc(/C(C)=N/NC(=N)N)c1 [semapimod]
microglia
  IC50: ~60 nM
[1]
  effect on M2 macrophage-enhanced ES cellular invasion: strongly decreased
